The source of these data is US10472635B2, “Methods of treating brain edema” (priority 2015, dated 2019).

One test relates to VRAC. Conditions: cited from earlier work.
For test [1], the system named is cortical neurons in brain slices. The experiment in a line: Neuronal swelling imaging assay in brain slices (cross sectional area of CoroNa-stained soma, two-photon). Format: cell-based, rat.
A further test relates to SLC4-A3, A8, A10. Conditions: cited from earlier work.
For another test, the target named is T1, SLC26A11 (Homo sapiens, UniProt Q86WA9).
T1 sequence (Q86WA9 1-606): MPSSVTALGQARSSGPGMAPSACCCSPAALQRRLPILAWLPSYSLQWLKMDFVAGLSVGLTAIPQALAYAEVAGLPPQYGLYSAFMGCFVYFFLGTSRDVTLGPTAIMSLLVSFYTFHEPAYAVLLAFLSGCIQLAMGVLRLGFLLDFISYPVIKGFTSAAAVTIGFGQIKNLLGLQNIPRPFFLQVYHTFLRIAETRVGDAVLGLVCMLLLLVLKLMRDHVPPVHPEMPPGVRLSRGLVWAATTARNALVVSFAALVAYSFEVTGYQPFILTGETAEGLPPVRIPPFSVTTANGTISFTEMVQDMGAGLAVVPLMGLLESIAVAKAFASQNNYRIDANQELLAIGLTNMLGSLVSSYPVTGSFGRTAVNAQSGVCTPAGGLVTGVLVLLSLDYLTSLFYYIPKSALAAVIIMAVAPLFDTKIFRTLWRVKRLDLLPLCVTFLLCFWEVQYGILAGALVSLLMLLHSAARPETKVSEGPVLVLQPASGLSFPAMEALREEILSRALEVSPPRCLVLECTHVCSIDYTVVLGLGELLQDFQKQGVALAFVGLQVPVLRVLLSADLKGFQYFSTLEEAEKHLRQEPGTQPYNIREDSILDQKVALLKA
Conditions: cited from earlier work.

The next test has as its system rat hippocampal slices. Kind of test: LDH release cell death assay in hippocampal slices. Format: cell-based. For orientation: Release of lactate dehydrogenase indicates damage to the cell membrane.
Test [2] deals with neuronal [Na^+]i in brain slices. The experiment in a line: Neuronal [Na+]i by CoroNa Green fluorescence / two-photon FLIM. Conditions: CoroNa signal; TTX 1 μM; DIDS 250 μM. Format: cell-based, rat.
The test system of test [3] is voltage-dependent Cl^− current in layer 4 cortical neurons. The experiment in a line: Whole-cell voltage clamp of depolarization-activated Cl- current. The format is cell-based, rat. To be noted: depolarization to −20 mV or greater; cocktail of channel blockers; GlyH-101 by dialysis. The procedure: Electrophysiology: Whole-cell recordings were performed in the presence of antagonists of GABAA (10 μM picrotoxin), AMPA/kainite (10 μM 6-cyano-7-nitoquinoxaline-2,3-dione—CNQX), and NMDA (2R-amino-5-phosphonovaleric acid—APV) receptors. 60 μM cadmium, 50 μM nickel and 100 μM 4AP (4-aminopyridine) were used to block voltage-gated calcium channels and A-type potassium channels. Whole-cell voltage-clamp recordings from cortical neurons were carried out at room temperature while the recording chamber was perfused with ACSF at 1-1.5 ml min-1. Recordings were made using a MultiClamp 700B amplifier controlled by Clampex 10.2 via a Digidata 1440A data acquisition system with 3-5M ? glass electrodes. The pipette solution containing (in m ? ): 108 CsCl, 8 TEA-Cl, 8 NaGluc, 1 CsEGTA, 4 K-ATP, 0.3 Na-GTP, 10 Hepes, 2MgCl2 (pH 7.2 with CsOH, 286 mosmol 1-1). Normal ACSF contained (in mM): 126 NaCl, 26 NaHCO3, 10 glucose, 2 MgCl2, 1.25 NaH2PO4, 2.5 KCl, 2.0 CaCl2 (pH 7.25, 310 mosmol 1-1). NaCl was replaced with 126 mM Na-isethionate in the low-chloride ACSF. Recordings where the series resistance varied more than 10% were rejected. Data were analyzed with Clampfit 10.0.
The opening of Na^+ permeable channels causes both [Na^+]i accumulation and neuronal depolarization. […] However progressive accumulation of extracellular K^+ could lead to further depolarization of the membrane. […]

The next test concerns Maxi-Anion Channel. Conditions: cited from earlier work.

`O=S(=O)(O)c1cc(N=C=S)ccc1C=Cc1ccc(N=C=S)cc1S(=O)(=O)O` [DIDS]: the “concentration (antagonist sensitivity of channel/transporter)” value with VRAC is 100 to 400 µM; in the test on SLC4-A3, A8, A10, 0.1 to 0.5 mM; on SLC26A11, 0.5 to 1 mM; with Maxi-Anion Channel, 100 µM. The “effect on veratridine-induced neuronal swelling” value in test [1] (22-24 °C, antagonist bath applied and in puffing pipette, DIDS 250 μM, NPPB 200 μM, TTX 1 μM) was “reduced the swelling”. Also, the “effect on veratridine-stimulated neuronal swelling at 37 °C” value in test [1] (37 °C, Calcein green-AM) is “block”. Also, the “effect on NMDA-induced neuronal swelling” value in test [1] (DIDS 250 μM, 500 μM, 1 mM, d-APV 100 μM) is “blocked NMDA-evoked neuronal swelling in a dose-dependent manner”. Further, in the test on rat hippocampal slices (50 μM veratridine), the “effect on veratridine-induced cell death (LDH release)” value is given as “prevented cell death”. Further, the “effect on NMDA-induced cell death (LDH release), Ca2+-independent” value in the test with rat hippocampal slices (NMDA in Ca2+ free extracellular solution) is “blocked”. Besides, the “effect on NMDA-induced cell death (LDH release), Ca2+-dependent” value in the test with rat hippocampal slices (NMDA with extracellular Ca2+ present, reduced extracellular Na+) was “not blocked”. Also, the “effect on veratridine-induced [Na+]i increase” value in test [2] is recorded as “not affected”. In addition, the “effect on non-inactivating Cl- current elicited by depolarization” value in test [3] is “blocked”.
